Laboratory results from patent US9943592B2, “Vaccine adjuvants from self-assembling peptides” (priority 2011, dated 2018).
Square brackets hold non-standard residues; d marks the D form. Ends that are not written are not given here.

Experiments:
[1] = system: PRRSV; assay: dynamic viremia after vaccination in pigs; conditions: pig, in vivo
Description: (§1) A stock solution of h9e peptide (concentration 1.75% by weight in water) was prepared. For the active agent, 2X Ingelvac PRRS MLV (Boehringer Ingelheim Vetmedica, St. Joseph, Mo.) was used. The vaccine was rehydrated by adding half of the contents of the accompanying liquid diluent to the vial containing the virus. Medium was then prepared by adding 0.3 ml bovine serum to 7.2 ml MEM medium (ion source). Next, 5 ml of the peptide stock solution was added to the medium and mixed well. This was then mixed with the vaccine solution. The final concentration of h9e as adjuvant was 0.35% by weight, and the final concentration of serum was […] by weight.
(§2) Vaccines were also prepared using a commercially-available adjuvant, Montanide™ Gel 01 (aqueous polymeric gel veterinary adjuvant, Seppic Inc., Fairfield, N.J.), or a published peptide hydrogel, designated herein as A1/2 (SEQ ID NO:28, corresponding to the N-terminal region of mineral directing gelator (MDG) 1; Gungormus, et al., Biomaterials 31 (2010) 7266-7274).
(§3) 55 PRRSV serum negative pigs were initially divided into 5 vaccination groups and vaccinated on Day 0. […]
(§4) At Day 0, all pigs were weighed, and weight was monitored weekly and recorded on Days 7, 14, 21, and 28. […] Body temperature and clinical signs were monitored daily and recorded. […]

[2] = system: PRRSV; assay: dynamic viremia after challenge in pigs; format: in vivo; conditions: challenge with VR2332 or MN184a on day 28
Description: as §1, §2, §3, §4

[3] = system: PRRSV; assay: IDEXX ELISA Ab titer in pigs; format: in vivo
Description: as §1, §2, §3, §4

[4] = solubility, stability and morphology of peptide and hydrogel; format: physicochemical; conditions: for solubility of peptide in water: until pH adjusted to neutral or basic
[5] = rheology of peptide hydrogels (storage modulus G', amplitude sweep, temperature profile); format: physicochemical
Description: (§5) The synthesized peptide was dissolved in DI water to a concentration of 5 mM by adjusting the pH to 8.0-10.0 with 1 M NaOH (Sigma). The h5e acidic solution and acidic h9e hydrogel were made by adjusting the pH to 4.0 with 1 M HCl (Sigma). The h9e Ca^2+ hydrogel was prepared by adding CaCl2 to a basic h9e peptide solution (molar ratio of peptide and Ca^2+ was 1:10, final pH was 7.0 to 9.0). The same method was used to prepare the h5e Ca^2+ solution.
The storage, G′, and loss, G″, moduli of h9e acidic and Ca^2+ hydrogels were determined on a rheometer system C-VOR 150 (Malvern instruments, Malvern, Worcestershire WR141XZ, United Kingdom) with a 20-mm diameter parallel plate geometry through frequency sweep (strain 1%, frequency 0.01 to 10 Hz, temperature 25° C.), amplitude sweep (strain 1 to 500%, frequency 1 Hz, temperature 25° C.), and temperature profile (strain 1%, frequency 1 Hz, Temperature 5° C., 20° C., 37° C., 50° C., 75° C., and 90° C.) measurements. The multiple amplitude sweep experiments were conducted to test the moduli recovery of peptide hydrogels. The time gap between every two tests was 10, 30, and 60 seconds for h9e Ca^2+ hydrogel.

[6] = hydrogel formation of peptide solutions (ion or pH trigger); format: physicochemical; conditions: 0.005M peptide concentration
Description: as §5

A1/2: published peptide hydrogel, N-terminal region of mineral directing gelator (MDG) 1 (VKVKVKVKVPPTKVEVKVKV; Derivative of N-terminal region of mineral directing gelator (MDG) 1)
viremia after vaccination compared to the MLV group [1]: no difference | viremia after challenge [2]: not | ELISA Ab titer after vaccination, compared among groups [3]: lowest

FLIVIGPGGDGPGGD [h5e, FLIVIGPGGDGPGGD]
solubility of peptide in water [4]: insoluble in water

FLIVIGSIIGPGGDGPGGD [h9e, FLIVIGSIIGPGGDGPGGD]
temperature stability of hydrogel [4]: up to 90 °C | water solubility of hydrogel [4]: water soluble | solubility of peptide in water [4]: insoluble in water | general health / biological safety (immunized mice until sera collection): biologically safe | injection site reaction (redness or swelling) (vaccinated mice): No injection site reaction

FLIVIGSIIKKKKKKKKKK (Synthetic peptide adjuvant) [h9e variant with eD2 region replaced by K10]
G' of hydrogel in basic pH [5]: 55.0 ± 0.9 Pa

GPGGDGPGGD (Hydrophilic region derived from spider flagelliform silk protein) [eD2]
hydrogel formation in Ca^2+ solution [6]: not able to form hydrogels

L5GSIIK10: L5K10 diblock peptide with GSII inserted (LLLLLGSIIKKKKKKKKKK)
hydrogel formation in Ca^2+ solution [6]: no hydrogel formation was observed

L5PP^DK10: L5K10 diblock peptide with sharp turning segment PP^D inserted (LLLLLP[dP]KKKKKKKKKK)
hydrogel formation in Ca^2+ solution [6]: no hydrogel formation was observed

LLLLLKKKKKKKKKK (Synthetic diblock peptide) [L5K10]
hydrogel formation in Ca^2+ solution [6]: no hydrogel formation was observed
